Laboratory results as given in ChEMBL document CHEMBL1143897, “Aryl-indolyl maleimides as inhibitors of CaMKIIdelta. Part 2: SAR of the amine tether” (Bioorg Med Chem Lett, 2008).

Biological target: Calcium/calmodulin-dependent protein kinase type II subunit delta (Homo sapiens, UniProt Q13557)
Test: Inhibition of CaMK2delta

Calcium/calmodulin-dependent protein kinase type II subunit delta, sequence (Q13557 whole entry): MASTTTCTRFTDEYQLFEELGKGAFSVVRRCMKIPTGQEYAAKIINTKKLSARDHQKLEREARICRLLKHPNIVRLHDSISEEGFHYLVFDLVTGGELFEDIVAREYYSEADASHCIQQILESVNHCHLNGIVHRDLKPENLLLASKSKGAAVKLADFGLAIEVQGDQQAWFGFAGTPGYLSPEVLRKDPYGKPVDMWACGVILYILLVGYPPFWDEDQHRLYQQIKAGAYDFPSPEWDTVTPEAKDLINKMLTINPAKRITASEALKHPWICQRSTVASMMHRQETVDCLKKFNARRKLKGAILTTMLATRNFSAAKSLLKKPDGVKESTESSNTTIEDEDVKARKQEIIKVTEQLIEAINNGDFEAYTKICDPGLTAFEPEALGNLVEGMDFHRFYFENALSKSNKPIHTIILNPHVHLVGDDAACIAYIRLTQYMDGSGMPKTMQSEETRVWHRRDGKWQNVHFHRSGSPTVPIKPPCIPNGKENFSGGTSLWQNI

SMILES	IC50 [µM]
CC(C)(C)OC(=O)NCCCn1cc(C2=C(c3c[nH]c4ccc(Br)cc34)C(=O)NC2=O)c2ccccc21	7.54
O=C1NC(=O)C(c2c[nH]c3ccccc23)=C1c1cccc(Br)c1	3.53
Cn1cc(C2=C(c3c[nH]c4ccc(Br)cc34)C(=O)NC2=O)c2ccccc21	0.87
O=C1NC(=O)C(c2cn(CCCN3CCNCC3)c3ccccc23)=C1c1c[nH]c2ccccc12	2.02
NCCCn1cc(C2=C(c3ccccc3)C(=O)NC2=O)c2ccccc21	1.35
O=C1NC(=O)C(c2cn(CCC3CCCCN3)c3ccccc23)=C1c1c[nH]c2ccccc12 (stereo not drawn)	1.45
Cn1cc(C2=C(c3ccccc3)C(=O)NC2=O)c2ccccc21	> 20
Cn1cc(C2=C(c3cn(C4CCCNC4)c4ccccc34)C(=O)NC2=O)c2ccccc21 (stereo not drawn)	0.3
O=C1NC(=O)C(c2c[nH]c3ccccc23)=C1c1c[nH]c2ccccc12 [RO-316233]	1.19
NCCCn1cc(C2=C(c3cccc(Br)c3)C(=O)NC2=O)c2ccccc21	0.18
CC(C)(C)OC(=O)NCCCn1cc(C2=C(c3ccccc3)C(=O)NC2=O)c2ccccc21	> 20
CC(C)(C)OC(=O)NCCCn1cc(C2=C(c3c[nH]c4ccccc34)C(=O)NC2=O)c2ccccc21	3.81
O=C1NC(=O)C(c2c[nH]c3ccccc23)=C1c1ccccc1	> 20
NCC(O)Cn1cc(C2=C(c3ccccc3)C(=O)NC2=O)c2ccccc21 (stereo not drawn)	0.45
Cn1cc(C2=C(c3cn(CCCN)c4ccccc34)C(=O)NC2=O)c2ccccc21	0.31
CN1CCCC1CCn1cc(C2=C(c3c[nH]c4ccccc34)C(=O)NC2=O)c2ccccc21 (stereo not drawn)	1.89
NCCCn1cc(C2=C(c3c[nH]c4ccc(Br)cc34)C(=O)NC2=O)c2ccccc21	0.034
Cn1cc(C2=C(c3cn(C4CCN(Cc5ccccc5)CC4)c4ccccc34)C(=O)NC2=O)c2ccccc21	1.87
